Results taken from patent US20210393932A1, “DERMAL PATCHES AND GLASS SWABS FOR APPLICATION OF TOPICAL IMMUNOSENSITIZERS” (Squarex, LLC, priority 2020, published 2021).
“Also recorded” adds a separate entry of the source.

Key:
[1] = tested on: herpes labialis (cold sores or oral herpes); details: cited from earlier work
[2] = HPLC analysis of test article vials and patch controls in air (guinea pig study); assay type: physicochemical
Description: Squaric acid dibutyl ester (SADBE) at 2% (w/v) concentration in dimethylsulfoxide (DMSO) was added to a skin patch for dermal dosing of SADBE to test for a delayed-type hypersensitivity response or other skin irritation. In the laboratories of Squarex HPLC analysis was conducted to analyze for SADBE content, for analysis of the dose formulation prepared by APS and to determine stability of the test article in the dermal patches during the application time and to test for residual SADBE in the dermal patches after 12 hours applied to the animals.
The skin patches consisted of a polymer backing layer similar to 3M 9916 polyester nonwoven backing layer with adhesive, 3M 9733 polyester film laminate barrier layer, and Precision Fabrics Group 0700-00010 polyester gauze layer. The gauze was heat sealed to the barrier layer. The gauze patch area was 1.53 cm^2.
The tubes of DMSO with patches were transported to the Squarex laboratory, shaken at 200 rpm for 1 hour or more, and then the DMSO from each tube was placed in an injection vial and analyzed for SADBE content by HPLC on a C18 column with the program SADBE3-50 ul. SADBE elutes in this program at about 24.0 minutes and absorbs at 255 nm, so the area of the 24.0 min peak at 255 nm was used to quantify SADBE. The SADBE degradation product squaric acid monobutyl ester (SAMBE) was also quantified by 255 nm area under the curve at the elution time of 12.7 minutes.
The test article vials of 2%, 6%, and 18% SADBE dissolved in DMSO complied with specifications and had the predicted concentrations of SADBE at 24 hours after preparation.
The results indicated the SADBE was stable for more than 12 hours in the patches when not exposed to animal skin. There was no apparent loss of SADBE or conversion of SADBE to SAMBE.

[3] = tested on: herpes labialis outbreaks; assay: Phase 2 multi-center placebo-controlled study of single dose SADBE in recurrent herpes labialis; assay type: in vivo, human
Description: After institutional review board approval and written informed consent, this study was conducted at five centers in subjects with four or more herpes labialis episodes in the previous 12 months. Subjects were randomized to receive either (1) one dose of 2% SADBE in DMSO on day 1, (2) 2% SADBE on day 1 and a second lower dose (0.5%) “booster” on day 22, or (3) dimethylsulfoxide (DMSO) vehicle only on days 1 and 22. All subjects were followed for 1 year.
Doses were applied by dipping a cotton swab in a blindly labeled 1 ml vial of liquid study medication, then swabbing a spot on the inner aspect of the upper arm over an area of about 10 to 15 mm diameter encircled by petroleum jelly. After application, the spot was covered by TEGADERM™ dressing, and subjects were advised to remove the dressing and wipe the spot with a wet cloth 3 hours later. The weight of the vial of study medication with the vial standing in it was measured immediately before and immediately after dosing each subject. The difference was the net mass of drug applied. In most cases, 10 mg to 20 mg of drug solution was applied to the arm.

[4] = Toxicity evaluation (body weight, food consumption, clinical observation, histopathology) in guinea pig; assay type: in vivo
Text: The purpose of this nonGLP study was to evaluate the effect of various concentrations of SADBE delivered via dermal patch, for dose site irritation and toxicity endpoints such as body weights, group food consumption, clinical observation, pre-termination clinical pathology, gross and histopathology.
Thirty (30) guinea pigs (15 female and 15 male) were utilized for this nonGLP study. Prior to and post dosing (dermal patches loaded with 20 microliters of 2, 6, or 18% SADBE drug solution) body weights, group food consumption, and Draize scoring for erythema, eschar formation, and edema at the dose site were be recorded. The dermal patch loaded with SADBE was applied to animals, and left in place for ˜12 hours plus/minus 1 hour. Following the ˜12 hour dosing period, patch sites was assessed by Draize scoring. […] After the 28 days assessment period, re challenge was performed, a second patch (not treated during the induction phase) was applied and assessed by Draize scoring.
At the end of the survival period, blood was collected for standard hematology and serum chemistry analysis, and the animals humanely euthanized. The second dose site and cervical lymph nodes were collected at necropsy for further histopathological evaluation. Dose site was explanted, fixed, and embedded. Dose sites were examined histologically and an evaluation of cell type presence and tissue response conducted.

[5] = 2% patch control, 20 ul, >12 hours in air
[6] = 2% vial, SADBE in DMSO, 24 hours after preparation
[7] = 6% patch control, 20 ul, >12 hours in air
[8] = 6% vial, SADBE in DMSO, 24 hours after preparation
[9] = 18% patch control, 20 ul, >12 hours in air
[10] = 18% vial, SADBE in DMSO, 24 hours after preparation
[11] = any dose tested (2%, 6%, 18% SADBE patch)
[12] = female, Group 1, 2% SADBE patch
[13] = female, Group 3, 18% SADBE patch

CCCCOc1c(OCCCC)c(=O)c1=O [SADBE, squaric acid dibutyl ester]
time for which a single dose to the arm prevents outbreaks ([1]; SADBE-DMSO solution (Palli et al., Chang et al.)): ≥ 3 months
number of cold sore outbreaks ([1]; single dose applied to the arm, for about four months (Palli et al., Chang et al.)): significantly decrease number of cold sore outbreaks
% of expected SADBE [2, 5]: 106.0%
SAMBE as percent of SADBE [2, 5]: 0.95%
% of expected SADBE [2, 6]: 97.5%
SAMBE as percent of SADBE [2, 6]: 0.84%
% of expected SADBE [2, 7]: 94.5%
SAMBE as percent of SADBE [2, 7]: 1.05%
% of expected SADBE [2, 8]: 102.9%
SAMBE as percent of SADBE [2, 8]: 0.83%
% of expected SADBE [2, 9]: 100.3%
SAMBE as percent of SADBE [2, 9]: 1.01%
% of expected SADBE [2, 10]: 97.7%
SAMBE as percent of SADBE [2, 10]: 0.91%
time SADBE was stable in the patches ([2]; patches not exposed to animal skin, no apparent loss or conversion to SAMBE): more than 12 hours
time to next outbreak from day 43 to 121 ([3]; 1-dose group (2% SADBE in DMSO day 1) vs placebo, p=0.024): superior to the placebo group
proportion of subjects with an outbreak in days 43-121 ([3]; 1-dose group (9/39), placebo 46%, p=0.036): 23%
mean number of outbreaks in days 43-121 ([3]; 1-dose group, ± standard error, placebo 0.610±0.068, p=0.011): 0.231±0.125
average number of moderate or severe outbreaks over days 1-365 ([3]; 1-dose, placebo 1.341±1.76, p=0.04): 0.641±0.931
average number of moderate or severe outbreaks over days 43-121 ([3]; 1 dose of SADBE, placebo 0.390±0.703, p=0.04): 0.128±0.339
outbreak measures vs placebo, 2-dose group ([3]; 2% SADBE day 1 and 0.5% booster day 22): superior to placebo these same measures, but not significantly so
severity of administration site reactions (most common adverse event) ([3]; topical 2% SADBE): all mild or moderate
time to resolution of administration site reactions ([3]; topical 2% SADBE): ≤ 3 months
lymph node sections ([4]; all SADBE treated groups (summary)): within normal limits
clinical monitoring observations ([4]; all doses): did not reveal any significant abnormalities
histopathology observed at all SADBE treated sites (summary) ([4]; all doses): mild to moderate parakeratosis, minimal multifocal necrosis and fatty infiltration
systemic toxicity ([4]; all doses, post-dosing and daily throughout study): no signs of systemic toxicity
effect on body weight [4, 11]: no significant effect; also recorded: not affected
effect on food consumption [4, 11]: no significant effect; also recorded: not affected
histopathology of treated skin sites: inflammatory infiltrates in the dermis [4, 12]: multifocal rare to mild infiltrates of inflammatory cells
histopathology of treated skin sites: necrosis, neovascularization, fibrosis, fatty infiltration [4, 12]: Necrosis, neovascularization, fibrosis and fatty infiltration were not noted
histopathology of treated skin sites: inflammatory infiltrates in the dermis ([4]; female, Group 2, 6% SADBE patch): multifocal rare to mild infiltrates of inflammatory cells
histopathology of treated skin sites: necrosis, neovascularization, fatty infiltration ([4]; female, Group 2, 6% SADBE patch, narrow fibrous band in three animals): Necrosis, neovascularization and fatty infiltration were not noted
histopathology of treated skin sites: inflammatory infiltrates in the dermis [4, 13]: multifocal rare to mild infiltrates of inflammatory cells
histopathology of treated skin sites: necrosis, neovascularization [4, 13]: Minimal multifocal necrosis and neovascularization was noted
histopathology of treated skin sites: inflammatory infiltrates in the dermis ([4]; male, Group 1, 2% SADBE patch): multifocal rare infiltrates of inflammatory cells
histopathology of treated skin sites: necrosis, neovascularization, fibrosis, fatty infiltration ([4]; male, Group 1, 2% SADBE patch): Necrosis, neovascularization, fibrosis and fatty infiltration were not noted
histopathology of treated skin sites: inflammatory infiltrates in the dermis ([4]; male, Group 2, 6% SADBE patch): multifocal rare to mild infiltrates of inflammatory cells
histopathology of treated skin sites: necrosis, neovascularization, fibrosis, fatty infiltration ([4]; male, Group 2, 6% SADBE patch): Necrosis, neovascularization, fibrosis and fatty infiltration were not noted
histopathology of treated skin sites: inflammatory infiltrates in the dermis ([4]; male, Group 3, 18% SADBE patch): multifocal rare to heavy infiltrates of inflammatory cells
histopathology of treated skin sites: necrosis, neovascularization ([4]; male, Group 3, 18% SADBE patch): Minimal, multofocal necrosis and mild multifocal neovascularization was noted
